For 26 compounds, IC50 results are on record in patent US8399465B2, “Compounds with two fused bicyclic heteroaryl moieties as modulators of leukotriene A4 hydrolase” (Janssen Pharmaceutica NV, priority 2009, dated 2013).

Assay [1] deals with LTB4 production in murine blood (LTA4H). Kind of assay: LTB4 production by calcium ionophore-stimulated murine blood for LTA4H inhibitor activity. The assay is classed as cell-based, CD-1 mice. The conditions noted are these: Mus musculus; murine blood diluted 1 in 15, A23187 stimulated; single determination or average; mark after value = form tested: ′ free base, ″ hydrochloride, ^ formate; read-out: IC50. A digest of the protocol: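 LTB4 was measured by ELISA in supernatants after calcium ionophore A23187 stimulation (final 7 μg/mL, 30 min, 37° C) of CD-1 mouse blood collected on heparin. Compound was preincubated with the blood for 15 min beforehand. Values come from one determination or average several.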

Assay [2] addresses T1, recombinant human LTA4 hydrolase (rhLTA4H) (Homo sapiens, UniProt P09960).
T1 construct: made in house; host or cells: Spodoptera frugiperda (Sf-9) cells, baculovirus (pFastBac1)
T1 sequence (P09960 1-611): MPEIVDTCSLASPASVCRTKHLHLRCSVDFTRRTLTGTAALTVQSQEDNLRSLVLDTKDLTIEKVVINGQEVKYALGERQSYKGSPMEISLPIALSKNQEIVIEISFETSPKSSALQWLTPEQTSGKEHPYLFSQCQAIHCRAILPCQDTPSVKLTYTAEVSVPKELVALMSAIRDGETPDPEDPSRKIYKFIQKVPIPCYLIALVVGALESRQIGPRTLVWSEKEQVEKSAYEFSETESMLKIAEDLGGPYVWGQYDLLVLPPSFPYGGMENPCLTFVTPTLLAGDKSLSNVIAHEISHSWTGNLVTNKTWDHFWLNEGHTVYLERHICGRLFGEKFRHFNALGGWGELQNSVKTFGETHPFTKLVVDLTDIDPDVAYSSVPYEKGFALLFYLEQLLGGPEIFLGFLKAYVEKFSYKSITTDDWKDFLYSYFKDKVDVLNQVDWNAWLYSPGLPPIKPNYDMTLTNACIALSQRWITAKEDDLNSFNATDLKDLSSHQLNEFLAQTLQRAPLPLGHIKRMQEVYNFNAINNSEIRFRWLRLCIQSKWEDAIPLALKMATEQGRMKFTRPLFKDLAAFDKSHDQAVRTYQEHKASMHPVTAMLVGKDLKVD
Kind of assay: Recombinant human LTA4 hydrolase assay for LTA4 hydrolase inhibitor activity. The assay is classed as biochemical. The conditions noted are these: rhLTA4H, LTB4 by immunoassay; single determination or average of two or more; mark after value = form tested: ′ free base, ″ hydrochloride, ^ formate; read-out: IC50. In short, it runs like this:
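LTB4 formation, measured by enzyme immunoassay, was the read-out. The enzyme, recombinant human LTA4H expressed in Sf-9 insect cells (10 ng per reaction), was exposed to compound for 10 min at room temperature before hydrolysed-ester LTA4 substrate was added for 30 min. Enzyme-free negatives were included.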

The structures appear in SMILES notation. Counter-ions that a name gives are not always drawn.

Broadly, the IC50 is the concentration that gives 50% inhibition. In the case of `O=C(c1coc2cc(Oc3nc4ncccc4s3)ccc12)N1CCC(Oc2ncccn2)CC1` [Example 382, [4-(Pyrimidin-2-yloxy)-piperidin-1-yl]-[6-(thiazolo[4,5-b]pyridin-2-yloxy)-benzofuran-3-yl]-methanone], the values for the IC50 in assay [1] and in assay [2] were 60 nM and 10 nM, respectively.

Consider `O=C(c1coc2cc(Oc3nc4ncccc4s3)ccc12)N1CCN(C2CCCCC2)CC1` [Example 379, (4-Cyclohexyl-piperazin-1-yl)-[6-(thiazolo[4,5-b]pyridin-2-yloxy)-benzofuran-3-yl]-methanone], for which the IC50 came to 150 nM in assay [1] and 10 nM in assay [2].

Take `O=C(C1CCOC1)N1CC2CN(Cc3coc4cc(Oc5nc6ncccc6s5)ccc34)CC2C1` (stereo not shown) [Example 354, (Tetrahydro-furan-3-yl)-{5-[6-(thiazolo[4,5-b]pyridin-2-yloxy)-benzofuran-3-ylmethyl]-hexahydro-pyrrolo[3,4-c]pyrrol-2-yl}-methanone]: the IC50 came to 200 nM in assay [1] and 7 nM in assay [2].

As for `CS(=O)(=O)C1CCN(Cc2c[nH]c3cc(Oc4nc5ccccc5s4)ccc23)CC1` [Example 4, 2-[3-(4-Methanesulfonyl-piperidin-1-ylmethyl)-1H-indol-6-yloxy]-benzothiazole], the 50% inhibitory concentration (IC50) in assay [1] was 190 nM; in assay [2], 23 nM.

Take `NC(=O)C1CCN(Cc2c[nH]c3cc(Oc4nc5ccccc5s4)cnc23)CC1` [Example 33, 1-[6-(Benzothiazol-2-yloxy)-1H-pyrrolo[3,2-b]pyridin-3-ylmethyl]-piperidine-4-carboxylic acid amide]: the IC50 worked out at 1520 nM in assay [1] and 42 nM in assay [2].

For the compound `c1ccc2oc(Oc3ccc4c(CN5CCCCC5)c[nH]c4c3)nc2c1` [Example 15, 2-(3-Piperidin-1-ylmethyl-1H-indol-6-yloxy)-benzooxazole], the IC50 in assay [1] came out at 152 nM; in assay [2], 13 nM.

Take `CC(=O)N(C(C)C)C1CCN(Cc2coc3cc(Oc4nc5ncccc5s4)ccc23)CC1` [Example 323, N-Isopropyl-N-{1-[6-(thiazolo[4,5-b]pyridin-2-yloxy)-benzofuran-3-ylmethyl]-piperidin-4-yl}-acetamide]: the IC50 in assay [1] amounted to 41 nM; in assay [2], 9 nM.

As to `c1ccc2sc(Oc3ccc4[nH]c(CN5CCCC5)cc4c3)nc2c1` [Example 66, 2-(2-Pyrrolidin-1-ylmethyl-1H-indol-5-yloxy)-benzothiazole], the IC50 in assay [1] was determined as 1130 nM; in assay [2], 30 nM.

As to `NC(=O)N1C[C@H]2CC[C@@H](C1)N2Cc1coc2cc(Oc3nc4ncccc4s3)ccc12` [Example 210, meso-8-[6-(Thiazolo[4,5-b]pyridin-2-yloxy)-benzofuran-3-ylmethyl]-3,8-diaza-bicyclo[3.2.1]octane-3-carboxylic acid amide], the concentration for half-maximal inhibition (IC50) in assay [1] stood at 34 nM; in assay [2], 5 nM.

Regarding `c1ccc2sc(Oc3ccc4c(CN5CCOCC5)coc4c3)nc2c1` [Example 165, 2-(3-Morpholin-4-ylmethyl-benzofuran-6-yloxy)-benzothiazole], the IC50 in assay [1] was determined as 840 nM; in assay [2], 95 nM.

`CN(Cc1ccccc1)Cc1c[nH]c2cc(Oc3nc4ccccc4s3)ccc12` [Example 5, [6-(Benzothiazol-2-yloxy)-1H-indol-3-ylmethyl]-benzyl-methyl-amine]: the results for the half-inhibitory concentration (IC50) in assay [1] and in assay [2] were 901 nM and 54 nM, respectively.

Take `CC(=O)NC1CCN(Cc2coc3cc(Oc4nc5ncc(C)cc5s4)ccc23)CC1` [Example 251, N-{1-[6-(6-Methyl-thiazolo[4,5-b]pyridin-2-yloxy)-benzofuran-3-ylmethyl]-piperidin-4-yl}-acetamide formate]: the IC50 amounted to 220 nM in assay [1] and 27 nM in assay [2].

For the compound `CC(=O)N1C[C@H]2CC[C@@H](C1)N2Cc1cc2ccc(Oc3nc4cnccc4s3)cc2o1` [Example 202, meso-1-{8-[6-(Thiazolo[4,5-c]pyridin-2-yloxy)-benzofuran-2-ylmethyl]-3,8-diaza-bicyclo[3.2.1]oct-3-yl}ethanone], the IC50 in assay [1] is 2700 nM; in assay [2], 1520 nM.

Consider `OC1CCN(Cc2coc3cc(Oc4nc5ncccc5s4)ccc23)CC1` [Example 268, 1-[6-(Thiazolo[4,5-b]pyridin-2-yloxy)-benzofuran-3-ylmethyl]-piperidin-4-ol], for which the IC50 in assay [1] is 150 nM; in assay [2] it was 8 nM.

With `c1cnc2nc(Oc3ccc4c(CNC5CCCCC5)coc4c3)sc2c1` [Example 299, Cyclohexyl-[6-(thiazolo[4,5-b]pyridin-2-yloxy)-benzofuran-3-ylmethyl]-amine], the half-inhibitory concentration (IC50) in assay [1] was 12 nM; in assay [2], 16 nM.

`NC(=O)C1CCN(C(=O)c2coc3cc(Oc4nc5ncccc5s4)ccc23)CC1` [Example 378, 1-[6-(Thiazolo[4,5-b]pyridin-2-yloxy)-benzofuran-3-carbonyl]-piperidine-4-carboxylic acid amide]: the IC50 in assay [1] was determined as 110 nM; in assay [2], 22 nM.

For `c1cnc2nc(Oc3ccc4c(CN5CCN6CCCC6C5)coc4c3)sc2c1` (stereo not shown) [Example 326, 2-[3-(Hexahydro-pyrrolo[1,2-a]pyrazin-2-ylmethyl)-benzofuran-6-yloxy]-thiazolo[4,5-b]pyridine], the IC50 in assay [1] turned out to be 120 nM; in assay [2] it was 21 nM.

As to `NC(=O)N1C[C@H]2CC[C@@H](C1)N2Cc1cc2cc(Oc3nc4ncccc4s3)ccc2o1` [Example 94, meso-8-[5-(Thiazolo[4,5-b]pyridin-2-yloxy)-benzofuran-2-ylmethyl]-3,8-diaza-bicyclo[3.2.1]octane-3-carboxylic acid amide], the values for the IC50 in assay [1] and in assay [2] were 202 nM and 102 nM, respectively.

Take `CCOC(=O)C1CCN(Cc2coc3cc(Oc4nc5ncccc5s4)ccc23)CC1` [Example 224, 1-[6-(Thiazolo[4,5-b]pyridin-2-yloxy)-benzofuran-3-ylmethyl]-piperidine-4-carboxylic acid ethyl ester]: the IC50 in assay [1] came to 366 nM; in assay [2], 2 nM.

In the case of `c1csc(CN2CCN(Cc3coc4cc(Oc5nc6ncccc6s5)ccc34)CC2)c1` [Example 325, 2-[3-(4-Thiophen-2-ylmethyl-piperazin-1-ylmethyl)-benzofuran-6-yloxy]-thiazolo[4,5-b]pyridine], the half-maximal inhibitory concentration (IC50) turned out to be 78 nM in assay [1] and 26 nM in assay [2].

For the compound `OCC1CCN(Cc2c[nH]c3cc(Oc4nc5ccccc5s4)ccc23)CC1` [Example 28, {1-[6-(Benzothiazol-2-yloxy)-1H-indol-3-ylmethyl]-piperidin-4-yl}-methanol], the IC50 in assay [1] worked out at 79 nM; in assay [2], 15 nM.

On to `CN1CCN(C(=O)C2CCN(Cc3c[nH]c4cc(Oc5nc6ccccc6s5)ccc34)CC2)CC1` [Example 26, {1-[6-(Benzothiazol-2-yloxy)-1H-indol-3-ylmethyl]-piperidin-4-yl}-(4-methyl-piperazin-1-yl)-methanone], for which the IC50 in assay [1] came to 188 nM; in assay [2], 7 nM.

On to `NC(=O)N[C@H]1C[C@H]2CC[C@@H](C1)N2Cc1coc2cc(Oc3nc4ncccc4s3)ccc12` [Example 175, meso-endo-{8-[6-(Thiazolo[4,5-b]pyridin-2-yloxy)-benzofuran-3-ylmethyl]-8-aza-bicyclo[3.2.1]oct-3-yl}-urea], for which the IC50 in assay [1] came to 176 nM; in assay [2], 2 nM.

For the compound `O=C(c1cnccn1)N1C[C@@H]2C[C@H]1CN2Cc1coc2cc(Oc3nc4ncccc4s3)ccc12` [Example 356, (1S,4S)-Pyrazin-2-yl-{5-[6-(thiazolo[4,5-b]pyridin-2-yloxy)-benzofuran-3-ylmethyl]-2,5-diaza-bicyclo[2.2.1]hept-2-yl}-methanone], the results for the IC50 in assay [1] and in assay [2] were 260 nM and 18 nM, respectively.

With `CCOC(=O)[C@@H]1CCCN(Cc2c[nH]c3cc(Oc4nc5ccccc5s4)ccc23)C1` [Example 144, (3R)-1-[6-(Benzothiazol-2-yloxy)-1H-indol-3-ylmethyl]-piperidine-3-carboxylic acid ethyl ester], the IC50 in assay [1] turned out to be 2440 nM; in assay [2], 78 nM.

As for `O=C(c1ccno1)N1C[C@@H]2C[C@H]1CN2Cc1coc2cc(Oc3nc4ncccc4s3)ccc12` [Example 358, (1S,4S)-Isoxazol-5-yl-{5-[6-(thiazolo[4,5-b]pyridin-2-yloxy)-benzofuran-3-ylmethyl]-2,5-diaza-bicyclo[2.2.1]hept-2-yl}-methanone], the figures for the IC50 in assay [1] and in assay [2] were 14 nM and 9 nM, respectively.
